Laboratory results reported in US20260070945A1, “MACROCYCLIC IMMUNOMODULATORS” (Bristol-Myers Squibb Company, priority 2022, published 2026).
Where a SMILES comes first, the peptide text is derived from it. Bridges are numbered along the chain shown (N, C = ends). [ ]: non-standard residue; d: D form. The star is where a group is joined. ξ: configuration not given here. Phe(4-COOH) = N[C@@H](Cc1ccc(C(=O)O)cc1)C(=O)O; Bip = N[C@@H](Cc1ccc(-c2ccccc2)cc1)C(=O)O; Aad = N[C@@H](CCCC(=O)O)C(=O)O; Cha = N[C@@H](CC1CCCCC1)C(=O)O; Cit = NC(=O)NCCC[C@H](N)C(=O)O; Ile(3ξ) = CCC(C)[C@H](N)C(=O)O; Thr(3ξ) = CC(O)[C@H](N)C(=O)O; Carboxymethyl = O=C(O)C*; NMeA = CN[C@@H](C)C(=O)O; Orn = NCCC[C@H](N)C(=O)O; Aun = NCCCCCCCCCCC(=O)O; Dab = NCC[C@H](N)C(=O)O; Dap = NC[C@H](N)C(=O)O; AEEA = NCCOCCOCC(=O)O

What follows are compounds tested against T1, PD-1/PD-L1 interaction (PE-labeled human PD-L1-Ig binding to Jurkat cell line over-expressing human PD-1) (Homo sapiens, UniProt Q15116) (assay: Jurkat-PD-1 Cell Binding High-Content Screening Assay (CBA)). Settings: Jurkat-hPD-1 cells, PE-labeled PD-L1-Ig 20 nM final; read-out: Jurkat HPD1 PDL1 IC50.
T1 construct: expressed in transfected cells; host or cells: Jurkat
T1 sequence (Q15116 25-288): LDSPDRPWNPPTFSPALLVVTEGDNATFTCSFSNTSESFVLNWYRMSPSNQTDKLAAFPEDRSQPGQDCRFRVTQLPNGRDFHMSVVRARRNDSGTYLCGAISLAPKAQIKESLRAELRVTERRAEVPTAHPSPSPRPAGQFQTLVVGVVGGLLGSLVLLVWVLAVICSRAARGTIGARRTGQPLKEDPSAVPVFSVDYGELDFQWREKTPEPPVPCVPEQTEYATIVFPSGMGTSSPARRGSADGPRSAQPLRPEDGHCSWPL
Method in brief: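 High-content imaging read-out of PE-PD-L1-Ig binding (20 nM final, 1 h) to Jurkat-hPD-1 cells, after 2 h compound exposure at 37 °C in DMEM with 10% FCS. Nuclei counterstained with Hoechst 33342 after paraformaldehyde fixation.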
Compound `CCC(C)[C@@H]1NC(=O)[C@H](Cc2ccc(-c3ccccc3)cc2)NC(=O)[C@H](C(C)C)NC(=O)[C@H](Cc2c[nH]c3ccccc23)NC(=O)[C@H](CC(=O)O)NC(=O)[C@H](Cc2ccc(C(=O)O)cc2)NC(=O)[C@H](Cc2ccc(OCC(=O)O)cc2)NC(=O)CSC[C@@H](C(=O)N[C@@H](CCCN)C(=O)NCCOCCOCC(=O)NCCCCCCCCCCC(=O)O)NC(=O)[C@H](C(C)O)NC(=O)[C@H](C(C)C)NC(=O)[C@H](CC2CCCCC2)NC(=O)[C@H](CCN)NC(=O)[C@@H](CC(C)C)NC(=O)[C@H](C)N(C)C1=O` (stereo partly drawn) [Example 2149] ({CH2CO}-Y(Carboxymethyl)[Phe(4-COOH)]DWV[Bip][Ile(3ξ)][NMeA][dL][Dab][Cha]V[Thr(3ξ)]C[Orn][AEEA][Aun]-OH; thioether N-14) has an IC50 of 17.7 nM. `CC(C)C[C@@H]1NC(=O)[C@H](Cc2c[nH]c3ccccc23)NC(=O)[C@H](CC(=O)O)NC(=O)[C@H](Cc2ccc(C(=O)O)cc2)NC(=O)[C@H](Cc2ccc(OCC(=O)O)cc2)NC(=O)CSC[C@@H](C(=O)N[C@@H](CCCN)C(=O)NCCOCCOCC(=O)NCCCCCCCCCCC(=O)O)NC(=O)[C@H](CCN)NC(=O)[C@H](C(C)C)NC(=O)[C@H](CC2CCCCC2)NC(=O)[C@H](CCN)NC(=O)[C@@H](CC(C)C)NC(=O)[C@H](C)N(C)C(=O)[C@H](C(C)C)NC(=O)[C@H](Cc2ccc(-c3ccccc3)cc2)NC1=O` [Example 2150] ({CH2CO}-Y(Carboxymethyl)[Phe(4-COOH)]DWL[Bip]V[NMeA][dL][Dab][Cha]V[Dab]C[Orn][AEEA][Aun]-OH; thioether N-14) gave an IC50 of 14.1 nM. In the case of `CC(C)C[C@@H]1NC(=O)[C@H](Cc2c[nH]c3ccccc23)NC(=O)[C@H](CC(=O)O)NC(=O)[C@H](Cc2ccc(C(=O)O)cc2)NC(=O)[C@H](Cc2ccc(OCC(=O)O)cc2)NC(=O)CSC[C@@H](C(=O)N[C@@H](CCCN)C(=O)NCCOCCOCC(=O)NCCCCCCCCCCC(=O)O)NC(=O)[C@H](CCCCN)NC(=O)[C@H](C(C)C)NC(=O)[C@H](CC2CCCCC2)NC(=O)[C@H](CCN)NC(=O)[C@@H](CC(C)C)NC(=O)[C@H](C)N(C)C(=O)[C@H](C(C)C)NC(=O)[C@H](Cc2ccc(-c3ccccc3)cc2)NC1=O` [Example 2151] ({CH2CO}-Y(Carboxymethyl)[Phe(4-COOH)]DWL[Bip]V[NMeA][dL][Dab][Cha]VKC[Orn][AEEA][Aun]-OH; thioether N-14), the IC50 is reported as 8.5 nM. `CC(C)C[C@@H]1NC(=O)[C@H](Cc2c[nH]c3ccccc23)NC(=O)[C@H](CC(=O)O)NC(=O)[C@H](Cc2ccc(C(=O)O)cc2)NC(=O)[C@H](Cc2ccc(OCC(=O)O)cc2)NC(=O)CSC[C@@H](C(=O)N[C@@H](CCCN)C(=O)NCCOCCOCC(=O)NCCCCCCCCCCC(=O)O)NC(=O)[C@H](CCCCN)NC(=O)[C@H](C(C)C)NC(=O)[C@H](CC2CCCCC2)NC(=O)[C@H](CCCC(=O)O)NC(=O)[C@@H](CC(C)C)NC(=O)[C@H](C)N(C)C(=O)[C@H](C(C)C)NC(=O)[C@H](Cc2ccc(-c3ccccc3)cc2)NC1=O` [Example 2152] ({CH2CO}-Y(Carboxymethyl)[Phe(4-COOH)]DWL[Bip]V[NMeA][dL][Aad][Cha]VKC[Orn][AEEA][Aun]-OH; thioether N-14) was tested, and the IC50 was 19.9 nM. `CC(C)C[C@@H]1NC(=O)[C@H](Cc2c[nH]c3ccccc23)NC(=O)[C@H](CC(=O)O)NC(=O)[C@H](Cc2ccc(C(=O)O)cc2)NC(=O)[C@H](Cc2ccc(OCC(=O)O)cc2)NC(=O)CSC[C@@H](C(=O)N[C@@H](CCCN)C(=O)NCCOCCOCC(=O)NCCCCCCCCCCC(=O)O)NC(=O)[C@H](CCCC(=O)O)NC(=O)[C@H](C(C)C)NC(=O)[C@H](CC2CCCCC2)NC(=O)[C@H](CCN)NC(=O)[C@@H](CC(C)C)NC(=O)[C@H](C)N(C)C(=O)[C@H](C(C)C)NC(=O)[C@H](Cc2ccc(-c3ccccc3)cc2)NC1=O` [Example 2153] ({CH2CO}-Y(Carboxymethyl)[Phe(4-COOH)]DWL[Bip]V[NMeA][dL][Dab][Cha]V[Aad]C[Orn][AEEA][Aun]-OH; thioether N-14) gave an IC50 of 16.7 nM. `CC(C)C[C@@H]1NC(=O)[C@H](Cc2c[nH]c3ccccc23)NC(=O)[C@H](CC(=O)O)NC(=O)[C@H](Cc2ccc(OCC(=O)O)cc2)NC(=O)[C@H](Cc2ccc(OCC(=O)O)cc2)NC(=O)CSC[C@@H](C(=O)N[C@@H](CCCCN)C(=O)NCCOCCOCC(=O)NCCCCCCCCCCC(=O)O)NC(=O)[C@H](CN)NC(=O)[C@H](C(C)C)NC(=O)[C@H](CC2CCCCC2)NC(=O)[C@H](CCN)NC(=O)[C@@H](CC(C)C)NC(=O)[C@H](C)N(C)C(=O)[C@H](C(C)C)NC(=O)[C@H](Cc2ccc(-c3ccccc3)cc2)NC1=O` [Example 2154] ({CH2CO}-Y(Carboxymethyl)Y(Carboxymethyl)DWL[Bip]V[NMeA][dL][Dab][Cha]V[Dap]CK[AEEA][Aun]-OH; thioether N-14) was tested, and the IC50 was 11 nM. For `CC(C)C[C@@H]1NC(=O)[C@H](Cc2c[nH]c3ccccc23)NC(=O)[C@H](CC(=O)O)NC(=O)[C@H](Cc2ccc(C(=O)O)cc2)NC(=O)[C@H](Cc2ccc(OCC(=O)O)cc2)NC(=O)CSC[C@@H](C(=O)NCCOCCOCC(=O)N[C@@H](CCN)C(=O)NCCCCCCCCCCC(=O)O)NC(=O)[C@H](CCCCN)NC(=O)[C@H](C(C)C)NC(=O)[C@H](CC2CCCCC2)NC(=O)[C@H](CCN)NC(=O)[C@@H](CC(C)C)NC(=O)[C@H](C)N(C)C(=O)[C@H](C(C)C)NC(=O)[C@H](Cc2ccc(-c3ccccc3)cc2)NC1=O` [Example 2155] ({CH2CO}-Y(Carboxymethyl)[Phe(4-COOH)]DWL[Bip]V[NMeA][dL][Dab][Cha]VKC[AEEA][Dab][Aun]-OH; thioether N-14), the IC50 was 6.6 nM. In the case of `CC(C)C[C@@H]1NC(=O)[C@H](Cc2c[nH]c3ccccc23)NC(=O)[C@H](CC(=O)O)NC(=O)[C@H](Cc2ccc(C(=O)O)cc2)NC(=O)[C@H](Cc2ccc(OCC(=O)O)cc2)NC(=O)CSC[C@@H](C(=O)NCCOCCOCC(=O)N[C@@H](CCN)C(=O)NCCCCCCCCCCC(=O)O)NC(=O)[C@H](CCCNC(N)=O)NC(=O)[C@H](C(C)C)NC(=O)[C@H](CC2CCCCC2)NC(=O)[C@H](CCN)NC(=O)[C@@H](CC(C)C)NC(=O)[C@H](C)N(C)C(=O)[C@H](C(C)C)NC(=O)[C@H](Cc2ccc(-c3ccccc3)cc2)NC1=O` [Example 2156] ({CH2CO}-Y(Carboxymethyl)[Phe(4-COOH)]DWL[Bip]V[NMeA][dL][Dab][Cha]V[Cit]C[AEEA][Dab][Aun]-OH; thioether N-14), the IC50 is reported as 16.5 nM. In the case of `CC(C)C[C@@H]1NC(=O)[C@H](Cc2c[nH]c3ccccc23)NC(=O)[C@H](CC(=O)O)NC(=O)[C@H](Cc2ccc(OCC(=O)O)cc2)NC(=O)[C@H](Cc2ccc(OCC(=O)O)cc2)NC(=O)CSC[C@@H](C(=O)N[C@@H](CCCCN)C(=O)NCCCCCCCCCCC(=O)O)NC(=O)[C@H](CCCN)NC(=O)[C@H](C(C)C)NC(=O)[C@H](CC2CCCCC2)NC(=O)[C@H](CCN)NC(=O)[C@@H](CC(C)C)NC(=O)[C@H](C)N(C)C(=O)[C@H](C(C)C)NC(=O)[C@H](Cc2ccc(-c3ccccc3)cc2)NC1=O` [Example 2157] ({CH2CO}-Y(Carboxymethyl)Y(Carboxymethyl)DWL[Bip]V[NMeA][dL][Dab][Cha]V[Orn]CK[Aun]-OH; thioether N-14), the IC50 is reported as 21 nM.
